Laboratory results as given in PubChem BioAssay (NCI).
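Growth conditions: 96-well plates. Treatment: test compound, 48 hours, 5 concentrations. Analysis: linear interpolation between bracketing concentrations; unreached endpoints set to highest concentration. TGI is the concentration that stops growth completely.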

Experiments:
Assay in all cases: NCI-60 cell line screen, 48 h
786-0 renal = tested on: 786-0 renal
A549 NSCLC = tested on: A549 NSCLC
ACHN renal = tested on: ACHN renal
CAKI-1 renal = tested on: CAKI-1 renal
CCRF-CEM leukemia = tested on: CCRF-CEM leukemia
COLO 205 colon = tested on: COLO 205 colon
DLD-1 colon = tested on: DLD-1 colon
DMS 114 small cell lung = tested on: DMS 114 small cell lung
DMS 273 small cell lung = tested on: DMS 273 small cell lung
EKVX NSCLC = tested on: EKVX NSCLC
HCC-2998 colon = tested on: HCC-2998 colon
HCT-15 colon = tested on: HCT-15 colon
HL-60(TB) leukemia = tested on: HL-60(TB) leukemia
HOP-62 NSCLC = tested on: HOP-62 NSCLC
HOP-92 NSCLC = tested on: HOP-92 NSCLC
HT29 colon = tested on: HT29 colon
IGROV1 ovarian = tested on: IGROV1 ovarian
K-562 leukemia = tested on: K-562 leukemia
KM12 colon = tested on: KM12 colon
KM20L2 colon = tested on: KM20L2 colon
LOX IMVI melanoma = tested on: LOX IMVI melanoma
LXFL 529 NSCLC = tested on: LXFL 529 NSCLC
M19-MEL melanoma = tested on: M19-MEL melanoma
MALME-3M melanoma = tested on: MALME-3M melanoma
MOLT-4 leukemia = tested on: MOLT-4 leukemia
NCI-H23 lung = tested on: NCI-H23 lung
NCI-H460 lung = tested on: NCI-H460 lung
NCI-H522 lung = tested on: NCI-H522 lung
OVCAR-3 ovarian = tested on: OVCAR-3 ovarian
OVCAR-5 ovarian = tested on: OVCAR-5 ovarian
OVCAR-8 ovarian = tested on: OVCAR-8 ovarian
RPMI-8226 leukemia = tested on: RPMI-8226 leukemia
RXF 393 renal = tested on: RXF 393 renal
RXF-631 renal = tested on: RXF-631 renal
SF-268 CNS = tested on: SF-268 CNS
SF-295 CNS = tested on: SF-295 CNS
SK-MEL-2 melanoma = tested on: SK-MEL-2 melanoma
SK-MEL-28 melanoma = tested on: SK-MEL-28 melanoma
SK-MEL-5 melanoma = tested on: SK-MEL-5 melanoma
SK-OV-3 ovarian = tested on: SK-OV-3 ovarian
SN12C renal = tested on: SN12C renal
SR leukemia = tested on: SR leukemia
SW-620 colon = tested on: SW-620 colon
TK-10 renal = tested on: TK-10 renal
U251 CNS = tested on: U251 CNS
UACC-257 melanoma = tested on: UACC-257 melanoma
UACC-62 melanoma = tested on: UACC-62 melanoma
XF 498 CNS = tested on: XF 498 CNS

Measured: TGI

COC(=O)C(Cc1cc(OC)c(OC)c(OC)c1)C(=O)OC
> 320 µM: 786-0 renal | A549 NSCLC | ACHN renal | CAKI-1 renal | CCRF-CEM leukemia | COLO 205 colon | DLD-1 colon | DMS 114 small cell lung | DMS 273 small cell lung | EKVX NSCLC | HCC-2998 colon | HCT-15 colon | HL-60(TB) leukemia | HOP-62 NSCLC | HOP-92 NSCLC | HT29 colon | IGROV1 ovarian | K-562 leukemia | KM12 colon | KM20L2 colon | LOX IMVI melanoma | LXFL 529 NSCLC | M19-MEL melanoma | MALME-3M melanoma | MOLT-4 leukemia | NCI-H23 lung | NCI-H460 lung | NCI-H522 lung | OVCAR-3 ovarian | OVCAR-5 ovarian | OVCAR-8 ovarian | RPMI-8226 leukemia | RXF 393 renal | RXF-631 renal | SF-268 CNS | SF-295 CNS | SK-MEL-2 melanoma | SK-MEL-28 melanoma | SK-MEL-5 melanoma | SK-OV-3 ovarian | SN12C renal | SR leukemia | SW-620 colon | TK-10 renal | U251 CNS | UACC-257 melanoma | UACC-62 melanoma | XF 498 CNS
